In patent US8809500B2, “Complexes comprising mammalian raptor polypeptide and mammalian mTOR polypeptide” (Whitehead Institute For Biomedical Research, priority 2002, dated 2014):

Tests used:
mTOR = target: T1, mTOR (Homo sapiens, UniProt P42345); assay: In vitro kinase assay for mTOR activity, endogenous mTOR immunoprecipitates, GST-S6K1 substrate; format: biochemical; settings: for effect on mTOR kinase activity of mTOR immunoprecipitates from treated cells: cells treated for 10 minutes: 500 mM sucrose, 1 mM H2O2, 1 μm valinomycin A, 100 mM 2-deoxyglucose; for sensitivity of kinase activity of immunoprecipitates of endogenous mTOR: 20 μM inhibitor, added 10 minutes prior to kinase assay
T1 construct: the kinase activity of immunoprecipitates of endogenous mTOR depends on the presence of mTOR; endogenous in cells; host or cells: HEK293T
Method: FIG. 8A is a gel showing deprivation of amino acids, leucine, or glucose increases the stability of raptor-mTOR complex and decreases mTOR kinase activity, effects reversed by stimulation with leucine or glucose. HEK293T cells were incubated for 50 minutes in RPMI lacking amino acids (−amino acids), leucine (−leucine), or glucose (−glucose) or left untreated (control). Duplicate plates of cells deprived of leucine or glucose were stimulated for 10 minutes with 52 μg/ml leucine (−leu+leu) or 11 mM glucose (−gluc+gluc), respectively. Cells were lysed, anti-mTOR immunoprecipitates prepared, and mTOR kinase activity determined with in vitro kinase assays containing ATP-[γ-^32P] and a GST-S6K1 fusion protein (Burnett et al., PNAS 95:1432-1437 (1998)). Kinase reactions were resolved by SDS-PAGE, proteins transferred to PVDF, ^32P-incorporation into GST-S6K1 detected with autoradiography (third panel from top) and levels of mTOR (top panel) and raptor (middle panel) determined by immunoblotting. Western blot analyses of cell lysates used to prepare mTOR immunoprecipitates showing effects of nutrient conditions on the phosphorylation state and gel mobility of S6K1 in vivo (bottom two panels).
Kinase assays were performed in a volume of 10 μl at 30° C. for 20 min and contained ¼ the washed mTOR immunoprecipitates from 10 million HEK293T cells growing on a 10-cm dish, 200 ng of a GST-S6K1 fusion protein (amino acids 332-502), 1 μCi of [γ-^32P]ATP, 25 mM Hepes-KOH, pH 7.4, 50 mM KCl, 20% glycerol, 10 mM MgCl2, 4 mM MnCl2, 1 mM DTT, and 50 μM unlabeled ATP. When inhibitors were used they were added to the mTOR immunoprecipitates 10 minutes prior to the start of the kinase assay. Reactions were stopped by the addition of 5 μl of 2× sample buffer. After boiling the samples for 3 min, proteins were resolved by 8% SDS-PAGE, transferred to PVDF (poly(vinylidene difluoride)), and phosphorylated proteins visualized with autoradiography. The same blots were then used to determine the levels of mTOR and raptor by western analysis. Kinase assays using recombinant mTOR were performed as described in Burnett et al., PNAS, 95:1432-1437 (1998), except that they were washed as above with Buffer B.

mTOR-raptor complex = target: T2, mTOR-raptor complex (Homo sapiens, UniProt P42345+P62942); assay: mTOR-raptor interaction: raptor co-precipitated in mTOR immunoprecipitates (western blot); format: cell-based; settings: for effect on mTOR-raptor interaction (complex stability): cells treated for 10 minutes: 500 mM sucrose, 1 mM H2O2, 1 μm valinomycin A, 100 mM 2-deoxyglucose
T2 construct: endogenous in cells
Excerpt: Unless otherwise stated, for mTOR immunoprecipitates prepared in the absence of the cross-linker, cells were lysed in ice-cold Buffer B (Buffer A in which Triton X-100 is replaced by 0.3% CHAPS) and immunoprecipitates were washed four times in Buffer B and twice in Wash Buffer 2.

HEK293T cells [1] = assay: Leucine-induced growth experiment (cell size after leucine re-addition); settings: HEK293T deprived of leucine 24 hours, then leucine 52 μg/ml; size at 6 and 10 hours; rapamycin added with leucine
Method: Cells were transfected with the indicated siRNAs and the experiment performed as described herein. […] Shown are mean±S.D. from samples for each time point.
(§1) Cells were then harvested, diluted 1:10 or 1:20 and replated in fresh media. At 1, 2, and 3 days after replating, the cells were harvested by trypsinization in 2 ml media, diluted 1:20 with counting solution (Isoflow Sheath Fluid, Coulter Corp.) and cell diameters and volumes determined using a particle size counter (Coulter Multisizer II). Cells between 11 and 21 μm in diameter were used for analysis. For the leucine-induced growth experiment, the siRNA transfected cells were diluted into fresh media one day after transfection and, at 24 hours after dilution the cells were deproved of leucine for a further 24 hours. The cells were then provided with leucine (52 μg/ml) and cell diameters, volumes, and numbers determined as above at 6 and 10 hours after the leucine supplementation.
Leucine was then added to the media and cell size measured at 6 and 10 hours after leucine addition.

HEK293T cells [2] = assay: Cell size determination in actively growing cells (Coulter Multisizer II); settings: three days after siRNA transfection or 20 nM rapamycin for 48 hours
Method: Cell diameters and volumes were determined three days after transfection using a particle size counter (Coulter Multisizer II). […] Mean±S.D. values were obtained from the indicated numbers of independent trials in which at least 10,000 cells were analyzed per trial.
as §1

S6K1 = assay: In vivo phosphorylation state of S6K1 (T389) in cell lysates by western blot; format: cell-based, human
[3] = insulin 200 nM for 25 minutes, HEK293T in serum-free media for 24 hours

Row | Compound | effect on mTOR kinase activity of mTOR immunoprecipitates from treated cells (mTOR) | effect on mTOR-raptor interaction (complex stability) (mTOR-raptor complex) | further results
1 | CNCCNS(=O)(=O)c1cccc2cnccc12 [H-8] | – | – | sensitivity of kinase activity of immunoprecipitates of endogenous mTOR (mTOR): not
2 | COc1cccc(-c2cc(=O)c3ccccc3o2)c1N [PD98059] | – | – | sensitivity of kinase activity of immunoprecipitates of endogenous mTOR (mTOR): not
3 | CO[C@H]1C[C@@H]2CC[C@@H](C)[C@@](O)(O2)C(=O)C(=O)N2CCCC[C@H]2C(=O)O[C@H]([C@H](C)C[C@@H]2CC[C@@H](O)[C@H](OC)C2)CC(=O)[C@H](C)/C=C(\C)[C@@H](O)[C@@H](OC)C(=O)[C@H](C)C[C@H](C)/C=C/C=C/C=C/1C [rapamycin] | – | – | growth rate after leucine addition (HEK293T cells [1]): 1.02 % volume per hour; cell diameter, mean±S.D. (HEK293T cells [2]): 14.61±0.10 μm
4 | CC(C)[C@@H]1NC(=O)[C@H](C)OC(=O)[C@@H](C(C)C)NC(=O)[C@@H](C(C)C)OC(=O)[C@H](C(C)C)NC(=O)[C@H](C)OC(=O)[C@@H](C(C)C)NC(=O)[C@@H](C(C)C)OC(=O)[C@H](C(C)C)NC(=O)[C@H](C)OC(=O)[C@@H](C(C)C)NC(=O)[C@@H](C(C)C)OC1=O [valinomycin] | inhibited mTOR kinase activity | stabilized the mTOR-raptor interaction | –
5 | antimycin A | inhibited mTOR kinase activity | stabilized the mTOR-raptor interaction | –
6 | insulin | – | – | effect on phosphorylation state of S6K1 (S6K1; [3]): increased the phosphorylation state of S6K1; effect on mTOR-raptor interaction (mTOR-raptor complex; [3]): did not affect the raptor-mTOR interaction

More lines, main results first:

Row | effect on mTOR kinase activity of mTOR immunoprecipitates from treated cells (mTOR) | effect on mTOR-raptor interaction (complex stability) (mTOR-raptor complex) | Compound | further results
7 | inhibited mTOR kinase activity | stabilized the mTOR-raptor interaction | O=CC[C@@H](O)[C@H](O)[C@H](O)CO [2-deoxyglucose] | –
8 | inhibited the mTOR kinase | stabilized the interaction | OO [H2O2] | –
9 | only a modest effect | only a modest effect | OC[C@H]1O[C@@](CO)(O[C@H]2O[C@H](CO)[C@@H](O)[C@H](O)[C@H]2O)[C@@H](O)[C@@H]1O [sucrose] | effect on phosphorylation state of S6K1 (S6K1; cells treated for 10 minutes with 500 mM sucrose): decreased the phosphorylation state of S6K1
